Drawing on patent US8901118B2, “Compounds and methods for kinase modulation, and indications therefor” (Plexxikon Inc., priority 2010, dated 2014), this text covers IC50 for 18 compounds.

One assay has as its target c-Kit kinase (Homo sapiens, UniProt P10721). Kind of assay: c-Kit kinase biochemical activity assay (AlphaScreen, biotin-(E4Y)10 phosphorylation). The following applies: 100 μM ATP; read-out: Biochemical Inhibition IC50 Kit. Here is the method: Assays for biochemical and cell based activity are known in the art, for example, U.S. Patent Application Publication Number 2009/0076046, the disclosure of which is hereby incorporated by reference as it relates to such assays. For example, in one assay the biochemical activity IC50 values are determined with respect to inhibition of c-Kit kinase activity, where inhibition of phosphorylation of a peptide substrate is measured as a function of compound concentration. Compounds to be tested are dissolved in DMSO to a concentration of 20 mM. These are diluted 30 μL into 120 μL of DMSO (4 mM) and 1 μL is added to an assay plate. These are then serially diluted […] (50 μL to 100 μL DMSO) for a total of 8 points. Plates are prepared such that each kinase reaction is 20 μL in 1× kinase buffer (25 mM HEPES, pH 7.5, 2 mM MgCl2, 2 mM MnCl2, 0.01% Tween-20, 1 mM DTT, 0.01% BSA), 5% DMSO and 100 μM ATP. Substrate is 30 nM biotin-(E4Y) 10 (Millipore). C-kit kinase (obtained from Millipore (#14-559) or is prepared as described in U.S. Patent Application Publication Number 2009/0076046, the disclosure of which is hereby incorporated by reference as it relates to this assay) is at 0.75 ng per sample. After incubation of the kinase reaction for 1 hour at room temperature, 5 μL of donor beads (Streptavidin coated beads (Perkin Elmer Life Science) final concentration 10 μg/mL) in stop buffer (25 mM Hepes pH 7.5, 100 mM EDTA, 0.01% BSA) is added, the sample is mixed and incubated for 20 minutes at room temperature before adding 5 μL of acceptor beads (PY20 coated beads (Perkin Elmer Life Science) final concentration 10 μg/mL) in stop buffer. The samples are incubated for 60 minutes at room temperature and the signal per well is read on Envision reader. Phosphorylated substrate results in binding of the PY20 antibody and association of the donor and acceptor beads such that signal correlates with kinase activity. The signal vs. compound concentration is used to determine the IC50.

The next assay concerns the target CYP3A4(BQ) (Homo sapiens, UniProt P08684). As to the kind of experiment: CYP3A4(BQ) inhibition. The assay is classed as in vitro ADME. The following applies: CYP3A4, substrate BQ; read-out: Cyp IC50 3A4(BQ). Here is the method:
(§1) CYP (Cytochrome P450) enzymes are the major drug metabolizing enzymes present in the liver. The inhibition of CYP enzyme activity (IC50) for each of CYP1A2, CYP2C19, CYP2C9, CYP2D6, CYP3A4(BFC) and CYP3A4(BQ) is determined for compounds, where inhibition of metabolism of a known substrate leads to a decrease in the fluorescence of the metabolized product. The fluorescence of the product is monitored as a function of compound concentration. Compounds are dissolved in DMSO to a concentration of 100 mM. These are diluted 1 μL into 82 μL of acetonitrile. An 11 μL aliquot of this solution is then added to 204 μL of cofactor mix (1.3% NADPH Regeneration system Solution A, 1.04% NADPH Regeneration system Solution B from BD Biosciences, 5% acetonitrile and 0.05% DMSO). These are then serially diluted 1:1 (160 μL to 160 μL co-factor mix) for a total of 10 points. A 10 μL aliquot of this final mixture is dispensed into 384 well assay plates and incubated for 10 minutes at 37° C. […] Assay plates are incubated at 37° C. (CYP1A2-15 min; CYP2C9-45 min; CYP2C19, 2D6 and 3A4-30 min) and read in a Tecan Safire 2 plate reader (CYP1A2, 2C19 and 3A4 409 ex/460 em; CYP2C9 and 2D6 409 ex/530 em). The signal versus compound concentration is used to determine the IC50. The enzymes and substrates for this assay are obtained from BD Biosciences.

The next assay deals with CYP2D6 (Homo sapiens, UniProt P10635). As to the kind of experiment: CYP2D6 inhibition (fluorescent substrate AMMC). The following applies: read-out: Cyp IC50 2D6. The assay is classed as in vitro ADME. Here is the method: as §1

The term IC50 denotes the concentration at which inhibition is half-maximal.

Sequence of c-Kit kinase (P10721 26-976): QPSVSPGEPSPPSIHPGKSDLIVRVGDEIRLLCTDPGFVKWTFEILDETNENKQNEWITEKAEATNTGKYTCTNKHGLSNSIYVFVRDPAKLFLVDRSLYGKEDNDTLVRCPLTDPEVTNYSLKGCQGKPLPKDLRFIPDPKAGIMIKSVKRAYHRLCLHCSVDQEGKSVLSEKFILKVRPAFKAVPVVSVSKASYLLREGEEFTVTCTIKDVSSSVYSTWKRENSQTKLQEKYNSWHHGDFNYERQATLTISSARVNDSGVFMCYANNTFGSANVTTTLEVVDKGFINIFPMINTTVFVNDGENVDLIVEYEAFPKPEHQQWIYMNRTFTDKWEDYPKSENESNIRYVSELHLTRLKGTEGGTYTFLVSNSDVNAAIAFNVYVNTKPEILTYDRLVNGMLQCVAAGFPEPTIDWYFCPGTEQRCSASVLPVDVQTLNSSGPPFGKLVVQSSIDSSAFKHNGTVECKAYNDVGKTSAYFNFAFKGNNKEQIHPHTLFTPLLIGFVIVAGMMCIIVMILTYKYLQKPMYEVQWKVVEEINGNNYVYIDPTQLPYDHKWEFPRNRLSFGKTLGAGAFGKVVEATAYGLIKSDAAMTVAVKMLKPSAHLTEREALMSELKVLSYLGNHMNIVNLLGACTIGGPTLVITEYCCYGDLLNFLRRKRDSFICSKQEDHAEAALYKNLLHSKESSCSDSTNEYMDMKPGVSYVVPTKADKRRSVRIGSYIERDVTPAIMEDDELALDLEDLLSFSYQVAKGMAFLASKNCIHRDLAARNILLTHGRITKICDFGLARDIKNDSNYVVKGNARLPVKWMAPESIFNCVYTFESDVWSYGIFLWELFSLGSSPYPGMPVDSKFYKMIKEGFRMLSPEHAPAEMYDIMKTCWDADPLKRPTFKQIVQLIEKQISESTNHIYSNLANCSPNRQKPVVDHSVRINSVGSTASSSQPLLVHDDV
Sequence of CYP2D6 (P10635 whole entry): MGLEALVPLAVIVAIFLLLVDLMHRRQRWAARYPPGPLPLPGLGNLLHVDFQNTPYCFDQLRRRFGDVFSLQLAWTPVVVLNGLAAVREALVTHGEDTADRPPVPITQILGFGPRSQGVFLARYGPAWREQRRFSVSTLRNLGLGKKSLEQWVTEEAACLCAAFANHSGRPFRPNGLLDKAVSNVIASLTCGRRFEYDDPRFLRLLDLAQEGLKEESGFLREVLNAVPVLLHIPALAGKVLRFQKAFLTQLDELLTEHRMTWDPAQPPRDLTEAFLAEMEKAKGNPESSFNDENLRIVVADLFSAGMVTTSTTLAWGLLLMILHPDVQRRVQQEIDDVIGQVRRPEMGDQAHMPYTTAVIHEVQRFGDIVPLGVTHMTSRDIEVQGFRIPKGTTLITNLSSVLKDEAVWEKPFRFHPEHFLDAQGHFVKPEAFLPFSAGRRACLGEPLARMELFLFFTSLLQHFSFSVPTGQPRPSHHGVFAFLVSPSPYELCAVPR
Sequence of CYP3A4(BQ) (P08684 whole entry): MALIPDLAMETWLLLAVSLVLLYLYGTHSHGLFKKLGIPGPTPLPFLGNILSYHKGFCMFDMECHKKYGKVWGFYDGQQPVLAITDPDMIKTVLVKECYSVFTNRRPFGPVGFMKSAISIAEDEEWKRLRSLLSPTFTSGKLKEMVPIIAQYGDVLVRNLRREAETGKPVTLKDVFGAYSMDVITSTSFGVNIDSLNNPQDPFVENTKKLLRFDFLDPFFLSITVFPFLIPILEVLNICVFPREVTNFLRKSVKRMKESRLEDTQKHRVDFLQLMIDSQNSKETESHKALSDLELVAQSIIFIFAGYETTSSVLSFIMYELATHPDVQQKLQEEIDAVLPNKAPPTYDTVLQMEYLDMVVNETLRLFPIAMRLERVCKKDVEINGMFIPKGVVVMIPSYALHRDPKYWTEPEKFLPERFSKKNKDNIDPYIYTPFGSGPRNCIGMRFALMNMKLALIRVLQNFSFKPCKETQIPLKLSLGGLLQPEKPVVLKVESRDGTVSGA

In the case of `Cc1ccc(Nc2ccc(C(=O)c3c[nH]c4ncnc(NC5CCCCC5)c34)c(F)n2)cn1` [Compound P-4111, [4-(cyclohexylamino)-7H-pyrrolo[2,3-d]pyrimidin-5-yl]-[2-fluoro-6-[(6-methyl-3-pyridyl)amino]-3-pyridyl]methanone], the IC50 on c-Kit kinase is below 1 µM; on CYP3A4(BQ) it was 5 to 10 µM; on CYP2D6 it was above 10 µM.
For `COc1ccc(Nc2ccc(C(=O)c3c[nH]c4ncnc(NC(C)C)c34)c(F)n2)cn1` [Compound P-4066, [2-fluoro-6-[(6-methoxy-3-pyridyl)amino]-3-pyridyl]-[4-(isopropylamino)-7H-pyrrolo[2,3-d]pyrimidin-5-yl]methanone] the same measures were below 0.1 µM, 5 to 10 µM and above 10 µM.
The corresponding values for `O=C(c1ccc(NC2CCC(F)(F)CC2)nc1)c1c[nH]c2ncnc(NCC(F)(F)F)c12` [Compound P-4087, [6-[(4,4-difluorocyclohexyl)amino]-3-pyridyl]-[4-(2,2,2-trifluoroethylamino)-7H-pyrrolo[2,3-d]pyrimidin-5-yl]methanone] are below 0.1 µM, above 10 µM and above 10 µM.
Regarding `CNc1ncnc2[nH]cc(C(=O)c3ccc(Nc4ccc(C5CC5)nc4)nc3F)c12` [Compound P-4094, [6-[(6-cyclopropyl-3-pyridyl)amino]-2-fluoro-3-pyridyl]-[4-(methylamino)-7H-pyrrolo[2,3-d]pyrimidin-5-yl]methanone], the 50% inhibitory concentration (IC50) was below 0.01 µM at c-Kit kinase, above 10 µM on CYP3A4(BQ) and below 5 µM at CYP2D6.
The corresponding values for `COc1ccc(Nc2ccc(C(=O)c3c[nH]c4ncnc(NC5CCC5)c34)c(F)n2)cn1` [Compound P-4076, [4-(cyclobutylamino)-7H-pyrrolo[2,3-d]pyrimidin-5-yl]-[2-fluoro-6-[(6-methoxy-3-pyridyl)amino]-3-pyridyl]methanone] are below 0.1 µM, above 5 µM and above 10 µM.
Consider `CCc1ccc(Nc2ccc(C(=O)c3c[nH]c4ncnc(NCC(F)(F)F)c34)c(F)n2)cn1` [Compound P-4120, [6-[(6-ethyl-3-pyridyl)amino]-2-fluoro-3-pyridyl]-[4-(2,2,2-trifluoroethylamino)-7H-pyrrolo[2,3-d]pyrimidin-5-yl]methanone], for which the half-inhibitory concentration (IC50) on c-Kit kinase is below 0.1 µM; at CYP3A4(BQ), above 10 µM; on CYP2D6, below 5 µM.
For `Fc1ccc(Nc2ncc(Cc3c[nH]c4ncc(Cl)cc34)cn2)cc1` [Compound P-3012, [5-(5-Chloro-1H-pyrrolo[2,3-b]pyridin-3-ylmethyl)-pyrimidin-2-yl]-(4-fluoro-phenyl)-amine], the IC50 on c-Kit kinase was below 0.01 µM; at CYP3A4(BQ), above 10 µM; at CYP2D6, above 10 µM.
Take `COc1ccc(Nc2ccc(C(=O)c3c[nH]c4ncnc(NCC(F)(F)F)c34)c(F)n2)cn1` [Compound P-4084, [2-fluoro-6-[(6-methoxy-3-pyridyl)amino]-3-pyridyl]-[4-(2,2,2-trifluoroethylamino)-7H-pyrrolo[2,3-d]pyrimidin-5-yl]methanone]: the results for the IC50 at c-Kit kinase, at CYP3A4(BQ) and on CYP2D6 were below 0.1 µM, above 10 µM and above 10 µM, respectively.
Turning to `COc1ccc(Nc2ccc(C(=O)c3c[nH]c4ncnc(NCC5CC5)c34)c(F)n2)cn1` [Compound P-4067, [4-(cyclopropylmethylamino)-7H-pyrrolo[2,3-d]pyrimidin-5-yl]-[2-fluoro-6-[(6-methoxy-3-pyridyl)amino]-3-pyridyl]methanone], the IC50 was below 1 µM on c-Kit kinase, above 10 µM on CYP3A4(BQ) and above 10 µM at CYP2D6.
For the compound `COc1cncc(Nc2ccc(C(=O)c3c[nH]c4ncnc(NC5CCCCC5)c34)c(F)n2)c1` [Compound P-4104, [4-(cyclohexylamino)-7H-pyrrolo[2,3-d]pyrimidin-5-yl]-[2-fluoro-6-[(5-methoxy-3-pyridyl)amino]-3-pyridyl]methanone], the IC50 on c-Kit kinase was below 1 µM; on CYP3A4(BQ) it was above 10 µM; at CYP2D6 it was above 10 µM.
As to `O=C(c1ccc(Nc2ccc(C(F)(F)F)nc2)nc1F)c1c[nH]c2ncnc(NC3CC3)c12` [Compound P-4091, [4-(cyclopropylamino)-7H-pyrrolo[2,3-d]pyrimidin-5-yl]-[2-fluoro-6-[[6-(trifluoromethyl)-3-pyridyl]amino]-3-pyridyl]methanone], the figures for the IC50 on c-Kit kinase, on CYP3A4(BQ) and on CYP2D6 were below 0.1 µM, above 10 µM and above 10 µM, respectively.
`Clc1ccc(Nc2ncc(Cc3c[nH]c4ncc(Cl)cc34)cn2)cc1` [Compound P-3011, (4-Chloro-phenyl)-[5-(5-chloro-1H-pyrrolo[2,3-b]pyridin-3-ylmethyl)-pyrimidin-2-yl]-amine]: the figures for the IC50 at c-Kit kinase, on CYP3A4(BQ) and on CYP2D6 were below 0.01 µM, above 10 µM and above 10 µM, respectively.
As to `Cc1ccc(Nc2ccc(C(=O)c3c[nH]c4ncnc(NCC(F)(F)F)c34)c(F)n2)cn1` [Compound P-4112, [2-fluoro-6-[(6-methyl-3-pyridyl)amino]-3-pyridyl]-[4-(2,2,2-trifluoroethylamino)-7H-pyrrolo[2,3-d]pyrimidin-5-yl]methanone], the IC50 was below 1 µM on c-Kit kinase, above 10 µM on CYP3A4(BQ) and below 5 µM at CYP2D6.
The corresponding values for `O=C(c1ccc(Nc2ccc(C3CC3)nc2)nc1F)c1c[nH]c2ncnc(NC3CC3)c12` [Compound P-4093, [4-(cyclopropylamino)-7H-pyrrolo[2,3-d]pyrimidin-5-yl]-[6-[(6-cyclopropyl-3-pyridyl)amino]-2-fluoro-3-pyridyl]methanone] are below 0.1 µM, above 10 µM and above 10 µM.
For `COc1ccc(Nc2ccc(C(=O)c3c[nH]c4ncnc(NC5CCCC5)c34)c(F)n2)cn1` [Compound P-4075, [4-(cyclopentylamino)-7H-pyrrolo[2,3-d]pyrimidin-5-yl]-[2-fluoro-6-[(6-methoxy-3-pyridyl)amino]-3-pyridyl]methanone] the same measures were below 1 µM, above 10 µM and above 10 µM.
For `COc1ccc(Nc2ccc(C(=O)c3c[nH]c4ncnc(NC5CCCCC5)c34)c(F)n2)cn1` [Compound P-4082, [4-(cyclohexylamino)-7H-pyrrolo[2,3-d]pyrimidin-5-yl]-[2-fluoro-6-[(6-methoxy-3-pyridyl)amino]-3-pyridyl]methanone] the same measures were below 1 µM, 5 to 10 µM and above 10 µM.
On to `CCc1ccc(Nc2ccc(C(=O)c3c[nH]c4ncnc(NCC(C)C)c34)c(F)n2)cn1` [Compound P-4121, [6-[(6-ethyl-3-pyridyl)amino]-2-fluoro-3-pyridyl]-[4-(isobutylamino)-7H-pyrrolo[2,3-d]pyrimidin-5-yl]methanone], for which the IC50 on c-Kit kinase was below 0.01 µM; at CYP3A4(BQ), above 10 µM; at CYP2D6, above 10 µM.
Take `CCCNc1ncnc2[nH]cc(C(=O)c3ccc(Nc4ccc(CC)nc4)nc3F)c12` [Compound P-4122, [6-[(6-ethyl-3-pyridyl)amino]-2-fluoro-3-pyridyl]-[4-(propylamino)-7H-pyrrolo[2,3-d]pyrimidin-5-yl]methanone]: the IC50 is below 0.01 µM at c-Kit kinase, above 10 µM on CYP3A4(BQ) and above 10 µM at CYP2D6.
